Read-outs that look alike come from different tables or passages of the source.
Legend:
Type in all cases: in vitro ADME
CYP2D6 = biological target: T1, CYP2D6 (Homo sapiens, UniProt P10635); assay: Luminogenic P450-Glo enzyme inhibition assay, CYP2D6
T1 construct: purchased Promega (P450-Glo Screening system); host or cells: baculovirus expression system
Procedure: (§1) The assay was carried out using P450-Glo Screening system from Promega (Promega Inc., Madison Wis., USA). It contains recombinant human CYP1A2, CYP2C9, CYP2C19, CYP2D6, and CYP3A4 enzymes in the membranes produced by a baculovirus expression system, specific luminogenic cytochrome enzyme substrates (luciferin 6-methyl ether, luciferin 6-benzyl ether, 6-deoxyluciferin, ethylene glycol ester of 6-deoxyluciferin, and ethylene glycol ester of luciferin 6-methyl ether), negative control membranes, a nicotinamide adenine dinucleotide phosphate hydrogen (NADPH) regeneration system containing NADP+, glucose-6-phosphate, magnesium chloride (MgCl2) and glucose-6-phosphate dehydrogenase (functioning to initiate and sustain the CYP450 reaction by maintaining a non-limiting NADPH system), reaction buffer, luciferin detection reagent, and Luciferin-Free Water. The negative control membranes were devoid of CYP activity. The luminogenic inhibition assays were performed following the protocols from Promega Corp. (Technical Bulletin, P450-Glo Assays, Promega Corp., 2009) and previous studies. […] The 12.5 μL of the luciferin-free water was added individually in both the “untreated” wells representing the values of total CYP activity and the “minus-P450 control” wells representing the values of the CYP-independent background luminescence. Secondly, 12.5 μL of the 4× reaction mixture (containing human CYP membrane preparations, the appropriate luminogenic substrate, and potassium phosphate buffer) was added to the “treated” and the “untreated” wells. The 12.5 μL of the 4× control reaction mixture (containing membrane preparations devoid of CYP enzymes, the appropriate luminogenic substrate, and potassium phosphate buffer) was added to the “minus-P450 control” wells. The plate was preincubated at room temperature (25°C) for 10 min, and then 25 μL of the 2× NADPH regeneration system was added to initiate the reaction. […] The luminescence in all of the samples was measured using a microplate reader as relative light units (RLU) after 20 min incubation to stabilize the luminescent signal. The assay experiments were repeated three independent times. The amount of light produced is directly proportional to the CYP enzyme activity. The net signals from untreated CYP reactions represent total CYP activity (100%). The modulation of the CYP activity by the test compound was determined by comparing the changes from the average net signal of untreated CYP reactions with the changes observed from the test compound. […] USA).

[1] = biological target: T2, recombinant human CYP2C19 (Homo sapiens, UniProt P33261); assay: Luminogenic P450-Glo enzyme inhibition assay, CYP2C19
T2 construct: purchased Promega (P450-Glo Screening system); host or cells: baculovirus expression system
Procedure: as §1

recombinant human CYP2C9 = biological target: T3, recombinant human CYP2C9 (Homo sapiens, UniProt P11712); assay: Luminogenic P450-Glo enzyme inhibition assay, CYP2C9
T3 construct: purchased Promega (P450-Glo Screening system); host or cells: baculovirus expression system
Procedure: as §1

recombinant human CYP1A2 = biological target: T4, recombinant human CYP1A2 (Homo sapiens, UniProt P05177); assay: Luminogenic P450-Glo enzyme inhibition assay, CYP1A2
T4 construct: purchased Promega (P450-Glo Screening system); host or cells: baculovirus expression system
T4 sequence (P05177 1-516): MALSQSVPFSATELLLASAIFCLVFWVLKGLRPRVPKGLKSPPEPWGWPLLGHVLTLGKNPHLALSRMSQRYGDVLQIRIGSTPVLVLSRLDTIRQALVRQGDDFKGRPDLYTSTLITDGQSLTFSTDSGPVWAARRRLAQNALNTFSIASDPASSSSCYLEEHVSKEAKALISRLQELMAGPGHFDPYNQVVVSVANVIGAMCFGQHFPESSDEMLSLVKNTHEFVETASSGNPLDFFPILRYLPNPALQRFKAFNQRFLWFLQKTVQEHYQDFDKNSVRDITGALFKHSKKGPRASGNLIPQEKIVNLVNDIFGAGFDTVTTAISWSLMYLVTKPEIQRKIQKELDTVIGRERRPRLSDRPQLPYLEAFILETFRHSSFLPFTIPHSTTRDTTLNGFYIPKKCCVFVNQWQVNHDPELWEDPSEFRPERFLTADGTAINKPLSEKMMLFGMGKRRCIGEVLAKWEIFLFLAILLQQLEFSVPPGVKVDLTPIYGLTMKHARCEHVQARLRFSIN
Procedure: as §1

recombinant human CYP3A4 = biological target: T5, recombinant human CYP3A4 (Homo sapiens, UniProt P08684); assay: Luminogenic P450-Glo enzyme inhibition assay, CYP3A4
T5 construct: purchased Promega (P450-Glo Screening system); host or cells: baculovirus expression system
Procedure: as §1

[2] = classified by IC50 value, read-out: inhibitory potency class on CYP2D6
[3] = recombinant human enzyme, luminescent assay, 45 min incubation, read-out: IC50 CYP2D6 (converted)
[4] = classified by IC50 value, read-out: inhibitory potency class on CYP2C19
[5] = recombinant human enzyme, luminescent assay, 30 min incubation, read-out: IC50 CYP2C19 (converted)
[6] = classified by IC50 value, read-out: inhibitory potency class on CYP2C9
[7] = recombinant human enzyme, luminescent assay, 30 min incubation, read-out: IC50 CYP2C9 (converted)
[8] = classified by IC50 value, read-out: inhibitory potency class on CYP1A2
[9] = recombinant human enzyme, luminescent assay, 30 min incubation, read-out: IC50 CYP1A2 (converted)
[10] = classified by IC50 value, read-out: inhibitory potency class on CYP3A4
[11] = recombinant human enzyme, luminescent assay, 30 min incubation, read-out: IC50 CYP3A4 (converted)

T3 sequence (P11712 whole entry): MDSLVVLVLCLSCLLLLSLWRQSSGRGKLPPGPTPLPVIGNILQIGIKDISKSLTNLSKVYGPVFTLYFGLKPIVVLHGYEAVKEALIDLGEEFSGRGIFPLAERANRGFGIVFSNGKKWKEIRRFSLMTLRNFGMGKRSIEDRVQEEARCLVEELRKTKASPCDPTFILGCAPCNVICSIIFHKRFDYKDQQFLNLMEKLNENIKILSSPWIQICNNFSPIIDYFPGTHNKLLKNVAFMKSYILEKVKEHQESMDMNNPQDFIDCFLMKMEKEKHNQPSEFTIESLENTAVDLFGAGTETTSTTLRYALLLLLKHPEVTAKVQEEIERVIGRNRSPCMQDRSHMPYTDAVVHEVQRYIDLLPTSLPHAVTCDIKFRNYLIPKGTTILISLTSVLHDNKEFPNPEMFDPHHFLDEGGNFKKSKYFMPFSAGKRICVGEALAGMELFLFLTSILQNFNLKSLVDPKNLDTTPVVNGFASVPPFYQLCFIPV
T1 sequence (P10635 whole entry): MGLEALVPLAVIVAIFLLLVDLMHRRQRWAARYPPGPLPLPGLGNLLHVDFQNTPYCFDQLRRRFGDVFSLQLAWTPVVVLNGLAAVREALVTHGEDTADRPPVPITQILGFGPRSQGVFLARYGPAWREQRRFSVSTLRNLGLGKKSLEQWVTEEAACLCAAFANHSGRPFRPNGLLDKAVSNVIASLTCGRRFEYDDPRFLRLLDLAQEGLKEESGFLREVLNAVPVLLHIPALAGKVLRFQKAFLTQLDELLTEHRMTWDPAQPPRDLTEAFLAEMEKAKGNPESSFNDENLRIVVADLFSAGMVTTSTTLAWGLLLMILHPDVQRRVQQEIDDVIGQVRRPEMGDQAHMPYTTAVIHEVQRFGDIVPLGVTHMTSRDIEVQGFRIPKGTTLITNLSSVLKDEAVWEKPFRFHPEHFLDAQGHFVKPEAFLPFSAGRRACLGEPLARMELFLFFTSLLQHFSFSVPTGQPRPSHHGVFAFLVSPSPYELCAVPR
T2 sequence (P33261 whole entry): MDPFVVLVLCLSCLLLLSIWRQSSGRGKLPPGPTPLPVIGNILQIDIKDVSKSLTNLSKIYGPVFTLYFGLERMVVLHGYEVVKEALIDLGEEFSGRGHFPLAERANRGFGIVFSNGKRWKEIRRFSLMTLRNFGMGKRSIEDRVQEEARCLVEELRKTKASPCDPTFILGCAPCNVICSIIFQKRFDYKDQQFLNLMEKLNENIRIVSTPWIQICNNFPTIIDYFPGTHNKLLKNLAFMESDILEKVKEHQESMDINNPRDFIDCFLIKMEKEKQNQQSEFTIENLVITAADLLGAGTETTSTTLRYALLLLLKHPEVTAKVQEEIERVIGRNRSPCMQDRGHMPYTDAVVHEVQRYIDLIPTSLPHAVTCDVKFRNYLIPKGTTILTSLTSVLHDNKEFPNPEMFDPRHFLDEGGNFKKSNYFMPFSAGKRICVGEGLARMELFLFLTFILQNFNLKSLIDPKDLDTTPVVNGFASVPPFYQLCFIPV
T5 sequence (P08684 whole entry): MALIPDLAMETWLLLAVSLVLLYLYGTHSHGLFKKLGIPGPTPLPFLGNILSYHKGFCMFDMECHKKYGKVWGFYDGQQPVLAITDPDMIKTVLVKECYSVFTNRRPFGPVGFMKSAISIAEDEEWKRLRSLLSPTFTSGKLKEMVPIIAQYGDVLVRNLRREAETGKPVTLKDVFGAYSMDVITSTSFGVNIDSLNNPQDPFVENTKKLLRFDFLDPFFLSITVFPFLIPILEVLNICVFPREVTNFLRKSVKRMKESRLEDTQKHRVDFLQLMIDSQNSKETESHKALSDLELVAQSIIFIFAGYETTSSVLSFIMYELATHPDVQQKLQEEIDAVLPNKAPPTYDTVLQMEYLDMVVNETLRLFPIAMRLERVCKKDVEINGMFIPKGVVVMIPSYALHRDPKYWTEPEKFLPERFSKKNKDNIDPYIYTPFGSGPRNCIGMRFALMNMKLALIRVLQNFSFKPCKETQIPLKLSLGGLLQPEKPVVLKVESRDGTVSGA

SMILES	IC50 (CYP2D6; [2]) [µM]	IC50 at 45 min (CYP2D6; human, classified by IC50 value, read-out: inhibitory potency class on CYP2D6) [µg/mL]	IC50 (CYP2D6; [3]) [µM]	IC50 [1, 4] [µM]	IC50 [1, 5] [µM]	IC50 (recombinant human CYP2C9; [6]) [µM]	IC50 (recombinant human CYP2C9; [7]) [µM]	IC50 (recombinant human CYP1A2; [8]) [µM]	IC50 (recombinant human CYP1A2; [9]) [µM]	IC50 (recombinant human CYP3A4; [10]) [mM]	IC50 (recombinant human CYP3A4; [11]) [mM]
O=c1c(O)c(-c2ccc(O)c(O)c2)oc2cc(O)ccc12 [Fisetin, 2-(3,4-dihydroxyphenyl)-3,7-dihydroxychromen-4-one]	69.9 to 349	> 100	163	< 69.9	< 0.00349	< 69.9	18.9	< 69.9	1.61	> 0.349	1.08
O=C1c2ccc(O)cc2OC(c2ccc(O)c(O)c2)C1O (stereo not drawn) [Fustin, 2-(3,4-dihydroxyphenyl)-3,7-dihydroxy-2,3-dihydrochromen-4-one]	> 347		18500	69.4 to 347	223	> 347	1870	> 347	17100	> 0.347	1.61

— publication PMC4100265, “Inhibition of Human Cytochrome P450 Enzymes by Allergen Removed Rhus verniciflua Stoke Standardized Extract and Constituents” (Evidence-based Complementary and Alternative Medicine : eCAM, 2014)
